Entries after “also recorded” stand apart in the source; their conditions may differ.
Legend:
[1] = system: Serotonin (5-HT) reuptake in rat brain synaptosomes; experiment: Inhibition of rat synaptosomal uptake of 3H-serotonin; assay type: biochemical; settings: rat diencephalic-mid brain crude synaptosomes; 3H-5HT 2×10^-8 M; Hill analysis
Description: (§1) Male Wistar rats weighing approximately 180-200 g are decapitated and their brains rapidly removed and dissected according to the method of Glowinski and Iversen. Glowinski, J. and Iversen, L. L., Regional studies of catecholamines in the rat brain I. The disposition of 3H-norepinephrine, 3H-dopamine and 3H-DOPA in various regions of the brain. J. Neurochem. 13:655-669, 1966.
(§2) Striatal tissues are pooled from three rat brains for the uptake of 3H-dopamine (3H-DA) and diencephalic-mid brain areas were used for the uptake of 3H-norepinephrine (3H-NE) and 3H-serotonin (3H-5HT). The tissues are immediately weighed and homogenized with a teflon-glass pestle homogenizer in 10 volumes of ice cold 0.32 M sucrose. The homogenates are centrifuged at 4° C. at 900×g for 10 minutes to remove nuclear particles and cellular debris. The supernatants are carefully withdrawn and transferred into clean test tubes kept in ice. Aliquots of these preparations containing crude synaptic nerve endings are used in subsequent uptake studies.
(§3) Amine uptake in crude synaptosomes is determined by a method essentially the same as that described by Snyder and Coyle, Snyder, S. H. and Coyle, J. T. Regional differences in 3H-norepinephrine and 3H-dopamine uptake into rat brain homogenates. J. Pharmacol. Exp. Ther. 165:78-86, 1969. Briefly, a 0.1 ml aliquot of the above tissue preparation is added to test tubes containing 3.7 ml of Krebs-Ringer phosphate buffer pH 7.4 with glucose (2 mg/ml), calcium chloride 0.024%, ascorbic acid (0.2 mg/ml) and nialamide (1.24×10^-5M). 1-(3,4-Dichlorophenyl)-3-azabicyclo[3.1.0]hexane hydrochloride at varying concentrations (0.01-2.5 μM) is added in a 0.1 ml volume. The incubation mixtures are agitated at 37° C. for 10 minutes under an atmosphere of 95% oxygen and 5% CO2 in a Dubnoff metabolic shaker to ensure irreversible inhibition of monoamine oxidase (MAO). After this initial pre-incubation period, the tubes are returned to the ice bath. 3H-DA, 3H-NE or 3H-5HT is added in a 0.1 ml volume to give a final concentration of labeled amine of 2×10^-8 M, and the incubation at 37° C. is continued for an additional 4 min. A set of tubes serving as control (uptake at 0° C.) is left in an ice bath. After the final incubation period, the samples are cooled in ice and then centrifuged at 4° C. at 10,000×g. The supernatant fluid is gently poured off from each tube. The surface of the pellet of each sample is washed with 5 ml of ice cold 0.9% sodium chloride which is then aspirated off without disturbing the pellet. The pellet is resuspended in a cintillation fluid ad radioactivity was determined. Protein content in the tissue samples is determined by the method of Lowry et al. Lowry, O. H., Rosebrough, N. J., Farr, A. L. and Randall, R. J. Protein measurement with the folin reagent. J. Biol. Chem. 193:265, 1951. The concentration of drug which inhibits the uptake of the labeled amine by 50% is determined by Hill analysis of the data.

[2] = system: Norepinephrine (NE) reuptake in rat brain synaptosomes; experiment: Inhibition of rat synaptosomal uptake of 3H-norepinephrine; assay type: biochemical; settings: rat diencephalic-mid brain crude synaptosomes; 3H-NE 2×10^-8 M; Hill analysis
Description: as §1, §2, §3

[3] = system: Male Wistar rats; experiment: Free-choice ethanol (6% v/v) vs tap water drinking, Part II; assay type: in vivo, rat; settings: for Ethanol Intake / Food Consumption / Ethanol Preference / Total Fluid Intake: mean ± S.D.
Method: (§4) Male Wistar rats are presented with an everyday free-choice between a 6% (v/v) ethanol solution and tap water. Following a seven-day baseline period, which establishes a pattern of stable drinking, only those animals whose consumption is greater than 50% of their total fluid intake are given intraperitoneal injections of three drugs. In part I citalopram (positive control) a neuronal serotonin uptake inhibitor at a dose of 30 mg/kg, […], and 1-(3,4-dichlorophenyl)-3-azabicyclo[3.1.0]hexane hydrochloride, also a serotonin uptake inhibitor, at doses of 5, 10 and 20 mg/kg are given by intraperitoneal injection for seven days. In part II, animals are given intraperitoneal injections of diazepam at a dose of 10 mg/kg and again the positive control used is citalopram at 30 mg/kg. Treatment period for part II also is over a seven-day period. Following the seven-day treatment period, a post-treatment period which lasted for an additional seven days is conducted where the animals are presented with a free choice between ethanol and water in order to determine the rate of recovery of ethanol drinking. During baseline, drug treatment and post-treatment periods, ethanol consumption by the rats is calculated in terms of daily ethanol preference ratio (volume of ethanol per volume of total daily fluid intake) and in terms of daily absolute of ethanol ingested (g/kg body weight).
(§5) Two hundred (200) drug-naive male Wistar rats obtained from the Canadian Breeding Farm Laboratories in Charles River Canada are used. All animals weigh between 180-200 g at the beginning of the experiment.
(§6) All animals are individually housed in stainless steel cages, in a room regulated for constant temperature, humidity and a 12-hour light/dark cycle (7:00 a.m.-7:00 p.m.). Each cage is equipped with two calibrated glass Richter tubes to deliver the fluids (ethanol and water) to the animals. All animals are presented with a free choice between ethanol and tap water throughout the experiment. The drinking vessels are randomly reversed in order to avoid bias generated by a position preference in the animals. In addition, Purina Rat Chow is made available throughout the experiment on an ad libitum basis.
(§7) At approximately the same time every day, 1300 h, the volume in mls of ethanol and tap water consumed by each animal is recorded. All tubes are then removed from the cages, rinsed and refilled with the appropriate fluids, i.e., ethanol solution and tap water. Also, all animals are weighed and their corresponding body weights recorded. At this time, additional food is provided.
(§8) Drugs used in part I are dissolved in Ringers solution to form the required doses. Drugs used in part II are suspended in a vehicle which consists of a 2% pre-boiled starch solution containing 5% polyethylene glycol 400 and tween 80 (1 drop/10 ml vehicle). All drugs are administered intraperitoneally according to the schedule (see Treatment period).
Group 2--citalopram 30 mg/kg (n=7)
Group 3--diazepam 10 mg/kg (n=7)
(§9) Post-treatment period:--Upon cessation of the drug treatment period, the animals are presented with a free choice between 6% ethanol and tap water for an additional 7 days in order to determine the rate of recovery of ethanol drinking.

[4] = system: Male Wistar rats; experiment: Free-choice ethanol (6% v/v) vs tap water drinking, Part I; assay type: in vivo, rat; settings: 30 mg/kg i.p. 7 days, mean ± S.D.
Method: as §4, §5, §6, §7, §8
Group 2--citalopram 30 mg/kg (n=10)
Group 3--1-(3,4-dichlorophenyl)-3-azabicyclo[3.1.0]hexane hydrochloride 5 mg/kg (n=10)
Group 4--1-(3,4-dichlorophenyl)-3-azabicyclo[3.1.0]hexane hydrochloride 10 mg/kg (n=10)
Group 5--1-(3,4-dichlorophenyl)-3-azabicyclo[3.1.0]hexane hydrochloride 20 mg/kg (n=10)
as §9

[5] = system: Dopamine (DA) reuptake in rat brain synaptosomes; experiment: Inhibition of rat synaptosomal uptake of 3H-dopamine; assay type: biochemical; settings: rat striatal crude synaptosomes; 3H-DA 2×10^-8 M; Hill analysis
Description: as §1
Striatal tissues are pooled from three rat brains for the uptake of 3H-dopamine (3H-DA) and diencephalic-mid brain areas were used for the uptake of 3H-norepinephrine (3H-NE) and 3H-serotonin (3H-5HT). The tissues are immediately weighed and homogenized with a teflon-glass pestle homogenizer in 10 volumes of ice cold 0.32 M sucrose. […]
Amine uptake in crude synaptosomes is determined by a method essentially the same as that described by Snyder and Coyle, Snyder, S. H. and Coyle, J. T. Regional differences in 3H-norepinephrine and 3H-dopamine uptake into rat brain homogenates. […] The pellet is resuspended in a cintillation fluid ad radioactivity was determined. Protein content in the tissue samples is determined by the method of Lowry et al. Lowry, O. H., Rosebrough, N. J., Farr, A. L. and Randall, R. J. Protein measurement with the folin reagent. […] The concentration of drug which inhibits the uptake of the labeled amine by 50% is determined by Hill analysis of the data.

[6] = 30 mg/kg i.p. 7 days, Baseline period
[7] = 30 mg/kg i.p. 7 days, Baseline period, 30 mg/kg
[8] = 30 mg/kg i.p. 7 days, Baseline period, listed as citalopram, 30 mg/kg
[9] = 30 mg/kg i.p. 7 days, Post-Treatment period
[10] = 30 mg/kg i.p. 7 days, Treatment period, 30 mg/kg
[11] = 30 mg/kg i.p. 7 days, Treatment period, listed as citalopram, 30 mg/kg
[12] = Treatment period, listed as citalopram, 30 mg/kg
[13] = 10 mg/kg i.p. 7 days, Baseline period
[14] = 10 mg/kg i.p. 7 days, Post-Treatment period
[15] = 10 mg/kg i.p. 7 days, Treatment period, 10 mg/kg
[16] = 10 mg/kg i.p. 7 days, Treatment period, listed as diazepam, 10 mg/kg

Structure (SMILES): c1ccc(C23CNCC2C3)cc1 (racemic) [±H H]
- IC50 [1]: 470 nM
- IC50 [2]: 401 nM

Structure (SMILES): Cc1ccc(C23CNCC2C3)cc1 (single isomer, unassigned) [+H p-CH3]
- IC50 [1]: 96 nM
- IC50 [2]: 215 nM

Structure (SMILES): CN(C)CCCC1(c2ccc(F)cc2)OCc2cc(C#N)ccc21 (stereo not shown) [Citalopram]
- Ethanol Intake [3, 6]: 4.86 ± 1.09 g/kg body weight
- Food Consumption [3, 6]: 19.82 ± 1.87 g/day
- Ethanol Preference [3, 7]: 86.16 ± 14.74%
- Total Fluid Intake [3, 7]: 4.9042 ± 0.4583 mL/h/kg
- Ethanol Preference [3, 8]: 86.16%
- Total Fluid Intake [3, 8]: 4.9042 mL/h/kg
- Ethanol Intake [3, 9]: 3.87 ± 1.91 g/kg body weight
- Ethanol Preference [3, 9]: 68.90%
- Food Consumption [3, 9]: 19.86 g/day
- Total Fluid Intake [3, 9]: 4.7558 mL/h/kg
- Ethanol Intake [3, 10]: 2.95 ± 1.59 g/kg body weight
- Ethanol Preference [3, 10]: 69.17 ± 30.25%
- Food Consumption [3, 10]: 14.20 ± 2.76 g/day
- Total Fluid Intake [3, 10]: 3.616 ± 0.5479 mL/h/kg
- Ethanol Intake [3, 11]: partial effect
- Ethanol Preference [3, 11]: 69.17%
- Food Consumption [3, 11]: 14.20 g/day
- Total Fluid Intake [3, 11]: 3.616 mL/h/kg
- Food intake lower than baseline level during treatment ([3]; 30 mg/kg i.p. 7 days, Treatment vs baseline): approximately 25%
- Ethanol Intake ([4]; Baseline period): 4.49 ± 1.18 g/kg body weight
- Ethanol Preference ([4]; Baseline period): 75.78 ± 18.09%
- Food Consumption ([4]; Baseline period): 20.14 ± 1.71 g/day
- Total Fluid Intake ([4]; Baseline period): 5.1746 ± 0.5146 mL/h/kg
- Ethanol Intake ([4]; Post-Treatment period): 3.32 ± 1.86 g/kg body weight
- Ethanol Preference ([4]; Post-Treatment period): 57.81 ± 32.23%
- Food Consumption ([4]; Post-Treatment period): 21.47 ± 1.94 g/day
- Total Fluid Intake ([4]; Post-Treatment period): 5.0612 ± 0.6242 mL/h/kg
- Ethanol Intake ([4]; Treatment period): 2.34 ± 1.44 g/kg body weight
- Ethanol Preference ([4]; Treatment period, 30 mg/kg): 61.06 ± 35.09%
- Food Consumption ([4]; Treatment period, 30 mg/kg): 11.96 ± 3.56 g/day
- Total Fluid Intake ([4]; Treatment period, 30 mg/kg): 3.446 ± 0.394 mL/h/kg
- Ethanol Preference [4, 12]: slight but insignificant decrease in ethanol preference
- Food Consumption [4, 12]: significant decrease in food consumption
- Total Fluid Intake [4, 12]: 3.446 mL/h/kg

Structure (SMILES): Clc1ccc(C23CNCC2C3)cc1 (single isomer, unassigned) [+H p-Cl]
- IC50 [1]: 55 nM
- IC50 [2]: 279 nM

Structure (SMILES): Clc1ccc(C23CNCC2C3)cc1 (racemic) [±H p-Cl]
- IC50 [1]: 169 nM
- IC50 [2]: 274 nM

Structure (SMILES): COc1ccc(C23CNCC2C3)cc1Br (racemic) [±H 3-Br-4-OCH3]
- IC50 [1]: 260 nM
- IC50 [2]: 318 nM

Structure (SMILES): Fc1ccc(C23CNCC2C3)cc1 (racemic) [±H p-F]
- IC50 [1]: 811 nM

Structure (SMILES): CN1C(=O)CN=C(c2ccccc2)c2cc(Cl)ccc21 [Diazepam]
- Ethanol Intake [3, 13]: 3.92 ± 1.75 g/kg body weight
- Ethanol Preference [3, 13]: 73.21 ± 26.62%
- Food Consumption [3, 13]: 21.24 ± 1.94 g/day
- Total Fluid Intake [3, 13]: 4.6321 ± 0.4679 mL/h/kg
- Ethanol Intake [3, 14]: 3.95 ± 1.91 g/kg body weight
- Ethanol Preference [3, 14]: 72.15%
- Food Consumption [3, 14]: 20.98 g/day
- Total Fluid Intake [3, 14]: 4.6487 mL/h/kg
- Ethanol Intake [3, 15]: 3.48 ± 1.51 g/kg body weight
- Ethanol Preference [3, 15]: 72.76 ± 28.03%
- Food Consumption [3, 15]: 20.75 ± 2.04 g/day
- Total Fluid Intake [3, 15]: 4.126 ± 0.369 mL/h/kg
- Ethanol Intake [3, 16]: no effect on ethanol intake; also recorded: no effect to attenuate voluntary ethanol consumption
- Ethanol Preference [3, 16]: virtually no change
- Food Consumption [3, 16]: no effect on food intake
- Total Fluid Intake [3, 16]: does not affect total fluid intake

Structure (SMILES): Cc1ccc(C23CNCC2C3)cc1 (racemic) [±H p-CH3]
- IC50 [1]: 137 nM
- IC50 [5]: 2360 nM
- IC50 [2]: 741 nM
